Assay results: ChEMBL document CHEMBL4715814, “Design, synthesis and biological activity evaluation of novel 4-subtituted 2-naphthamide derivatives as AcrB inhibitors” (2018)
Activity calls are given as the source filed them. No cut-off for these calls is given here. Peptide text beside a SMILES is read from it. * marks the point of attachment. βNA = c1ccc2cc(N*)ccc2c1

How the values were obtained:
Escherichia coli [1] = assay: Antibacterial activity against wild type Escherichia coli BW25113 assessed as inhibition of bacterial growth at 256 ug/ml after 18 hrs by microtitre broth dilution assay; assay type: functional, organism-based; conditions: dose 256.0 µg/ml
Escherichia coli [2] = assay: Potentiation of chloramphenicol-induced antibacterial activity against AcrB deficient Escherichia coli BW25113 assessed as chloramphenicol MIC at 128 ug/ml incubated for 18 hrs under aerobic condition by checkerboard titration assay (reference value: 2 ug/ml); assay type: functional; conditions: dose 128 µg/ml
Escherichia coli [3] = assay: Potentiation of chloramphenicol-induced antibacterial activity against wild type Escherichia coli BW25113 assessed as chloramphenicol MIC at 128 ug/ml incubated for 18 hrs under aerobic condition by checkerboard titration assay (reference value: 16 ug/ml); assay type: functional; conditions: dose 128 µg/ml
Escherichia coli [4] = assay: Potentiation of TPP-induced antibacterial activity against wild type Escherichia coli BW25113 assessed as TPP MIC at 128 ug/ml incubated for 18 hrs under aerobic condition by checkerboard titration assay (reference value: 1024 ug/ml); assay type: functional; conditions: dose 128 µg/ml
Escherichia coli [5] = assay: Potentiation of chloramphenicol-induced antibacterial activity against AcrB deficient Escherichia coli BW25113 assessed as chloramphenicol MIC at 256 ug/ml incubated for 18 hrs under aerobic condition by checkerboard titration assay (reference value: 2 ug/ml); assay type: functional; conditions: dose 256 µg/ml
Cell membrane [6] = assay: Disruption of inner membrane potential in wild type Escherichia coli BW25113 at 512 ug/ml preincubated for 10 mins followed by glucose stimulation and CCCP addition by DiOC2 probe based fluorimetric analysis; assay type: subcellular; conditions: dose 512.0 µg/ml
Escherichia coli [7] = assay: Potentiation of rifampicin-induced antibacterial activity against wild type Escherichia coli BW25113 assessed as rifampicin MIC at 128 ug/ml incubated for 18 hrs under aerobic condition by checkerboard titration assay (reference value: 16 ug/ml); assay type: functional; conditions: dose 128 µg/ml
Escherichia coli [8] = assay: Potentiation of TPP-induced antibacterial activity against wild type Escherichia coli BW25113 assessed as TPP MIC at 256 ug/ml incubated for 18 hrs under aerobic condition by checkerboard titration assay (reference value: 1024 ug/ml); assay type: functional; conditions: dose 256 µg/ml
Escherichia coli [9] = assay: Potentiation of erythromycin-induced antibacterial activity against wild type Escherichia coli BW25113 assessed as erythromycin MIC at 256 ug/ml incubated for 18 hrs under aerobic condition by checkerboard titration assay (reference value: 128 ug/ml); assay type: functional; conditions: dose 256 µg/ml
Escherichia coli [10] = assay: Potency index, ratio of A3 MIC to compound MIC for potentiation of erythromycin-induced antibacterial activity against Escherichia coli BW25113; assay type: functional
Escherichia coli [11] = assay: Potentiation of TPP-induced antibacterial activity against AcrB deficient Escherichia coli BW25113 assessed as TPP MIC at 256 ug/ml incubated for 18 hrs under aerobic condition by checkerboard titration assay (reference value: 256 ug/ml); assay type: functional; conditions: dose 256 µg/ml
Escherichia coli [12] = assay: Potentiation of erythromycin-induced antibacterial activity against AcrB deficient Escherichia coli BW25113 assessed as erythromycin MIC at 128 ug/ml incubated for 18 hrs under aerobic condition by checkerboard titration assay (reference value: 32 ug/ml); assay type: functional; conditions: dose 128 µg/ml
Escherichia coli [13] = assay: Potentiation of erythromycin-induced antibacterial activity against wild type Escherichia coli BW25113 assessed as fold reduction in erythromycin MIC at 128 ug/ml incubated for 18 hrs under aerobic condition by checkerboard titration assay relative to erythromycin MIC alone; assay type: functional; conditions: dose 128 µg/ml
Escherichia coli [14] = assay: Potentiation of TPP-induced antibacterial activity against AcrB deficient Escherichia coli BW25113 assessed as TPP MIC at 128 ug/ml incubated for 18 hrs under aerobic condition by checkerboard titration assay (reference value: 256 ug/ml); assay type: functional; conditions: dose 128 µg/ml
Escherichia coli [15] = assay: Antibacterial activity against Wild type Escherichia coli BW25113 assessed as inhibition of AcrB efflux pump by mesuring the glucose-induced nile red efflux at 200 uM preincubated with CCCP for 15 mins followed by compound addition after 15 mins nile red added and incubated for 3 hrs in shaker by fluorimetric analysis; assay type: functional, organism-based; conditions: time 195.0 min
Escherichia coli [16] = assay: Potentiation of chloramphenicol-induced antibacterial activity against wild type Escherichia coli BW25113 assessed as chloramphenicol MIC at 256 ug/ml incubated for 18 hrs under aerobic condition by checkerboard titration assay (reference value: 16 ug/ml); assay type: functional; conditions: dose 256 µg/ml
Escherichia coli [17] = assay: Potentiation of erythromycin-induced antibacterial activity against AcrB deficient Escherichia coli BW25113 assessed as erythromycin MIC at 256 ug/ml incubated for 18 hrs under aerobic condition by checkerboard titration assay (reference value: 32 ug/ml); assay type: functional; conditions: dose 256 µg/ml
Escherichia coli [18] = assay: Potentiation of erythromycin-induced antibacterial activity against Escherichia coli BW25113 assessed as erythromycin MIC at 32 ug/ml incubated for 18 hrs under aerobic condition in presence of EDTA by checkerboard titration assay; assay type: functional, organism-based; conditions: dose 32.0 µg/ml
Escherichia coli [19] = assay: Antibacterial activity against AcrB deficient Escherichia coli BW25113 assessed as inhibition of bacterial growth at 256 ug/ml after 18 hrs by microtitre broth dilution assay; assay type: functional, organism-based; conditions: dose 256.0 µg/ml
Cell membrane [20] = assay: Induction of outer membrane permeabilization in wild type Escherichia coli BW25113 assessed as increase in nitrocefin hydrolysis at 512 ug/ml measured for 30 mins in presence of CCCP by spectrophotometry analysis; assay type: subcellular; conditions: dose 512.0 µg/ml
Escherichia coli [21] = assay: Potentiation of erythromycin-induced antibacterial activity against wild type Escherichia coli BW25113 assessed as erythromycin MIC at 128 ug/ml incubated for 18 hrs under aerobic condition by checkerboard titration assay (reference value: 128 ug/ml); assay type: functional; conditions: dose 128 µg/ml
Escherichia coli [22] = assay: Potentiation of rifampicin-induced antibacterial activity against wild type Escherichia coli BW25113 assessed as rifampicin MIC at 256 ug/ml incubated for 18 hrs under aerobic condition by checkerboard titration assay (reference value: 16 ug/ml); assay type: functional; conditions: dose 256 µg/ml
Escherichia coli [23] = assay: Potentiation of TPP-induced antibacterial activity against wild type Escherichia coli BW25113 assessed as TPP MIC at 200 ug/ml incubated for 18 hrs under aerobic condition by checkerboard titration assay (reference value: 1024 ug/ml); assay type: functional; conditions: dose 200 µg/ml
Escherichia coli [24] = assay: Potentiation of erythromycin-induced antibacterial activity against AcrB deficient Escherichia coli BW25113 assessed as erythromycin MIC at 200 ug/ml incubated for 18 hrs under aerobic condition by checkerboard titration assay (reference value: 32 ug/ml); assay type: functional; conditions: dose 200 µg/ml
Escherichia coli [25] = assay: Potentiation of erythromycin-induced antibacterial activity against wild type Escherichia coli BW25113 assessed as erythromycin MIC at 200 ug/ml incubated for 18 hrs under aerobic condition by checkerboard titration assay (reference value: 128 ug/ml); assay type: functional; conditions: dose 200 µg/ml
Escherichia coli [26] = assay: Potentiation of rifampicin-induced antibacterial activity against wild type Escherichia coli BW25113 assessed as rifampicin MIC at 200 ug/ml incubated for 18 hrs under aerobic condition by checkerboard titration assay (reference value: 16 ug/ml); assay type: functional; conditions: dose 200 µg/ml
Escherichia coli [27] = assay: Potentiation of chloramphenicol-induced antibacterial activity against AcrB deficient Escherichia coli BW25113 assessed as chloramphenicol MIC at 200 ug/ml incubated for 18 hrs under aerobic condition by checkerboard titration assay (reference value: 2 ug/ml); assay type: functional; conditions: dose 200 µg/ml
Escherichia coli [28] = assay: Potentiation of TPP-induced antibacterial activity against AcrB deficient Escherichia coli BW25113 assessed as TPP MIC at 200 ug/ml incubated for 18 hrs under aerobic condition by checkerboard titration assay (reference value: 256 ug/ml); assay type: functional; conditions: dose 200 µg/ml
Escherichia coli [29] = assay: Potentiation of chloramphenicol-induced antibacterial activity against wild type Escherichia coli BW25113 assessed as chloramphenicol MIC at 200 ug/ml incubated for 18 hrs under aerobic condition by checkerboard titration assay (reference value: 16 ug/ml); assay type: functional; conditions: dose 200 µg/ml

**Q.** `CC(C)NCCOc1cc(C(N)=O)cc2ccccc12` was tested. Which Activity (Escherichia coli [1]) did it give?
**A.** inactive

**Q.** What about the MIC (Escherichia coli [2]) of the same compound?
**A.** 2 µg/mL

**Q.** What about the MIC (Escherichia coli [3]) of the same compound?
**A.** 16 µg/mL

**Q.** What about the MIC (Escherichia coli [4]) of the same compound?
**A.** 1020 µg/mL

**Q.** What about the MIC (Escherichia coli [5]) of the same compound?
**A.** 2 µg/mL

**Q.** What about the Activity (Cell membrane [6]) of the same compound?
**A.** inactive

**Q.** And the MIC (Escherichia coli [7])?
**A.** 16 µg/mL

**Q.** What about the MIC (Escherichia coli [8]) of the same compound?
**A.** 1020 µg/mL

**Q.** And the MIC (Escherichia coli [9])?
**A.** 16 µg/mL

**Q.** What about the Ratio (Escherichia coli [10]) of the same compound?
**A.** 16

**Q.** And the MIC (Escherichia coli [11])?
**A.** 256 µg/mL

**Q.** What about the MIC (Escherichia coli [12]) of the same compound?
**A.** 32 µg/mL

**Q.** What about the “fold change (FC)” value (Escherichia coli [13]) of the same compound?
**A.** 8

**Q.** And the MIC (Escherichia coli [14])?
**A.** 256 µg/mL

**Q.** And the Activity (Escherichia coli [15])?
**A.** Active

**Q.** What about the MIC (Escherichia coli [16]) of the same compound?
**A.** 16 µg/mL

**Q.** And the MIC (Escherichia coli [17])?
**A.** 32 µg/mL

**Q.** And the Activity (Escherichia coli [18])?
**A.** Active

**Q.** And the Activity (Escherichia coli [19])?
**A.** Active

**Q.** And the Activity (Cell membrane [20])?
**A.** inactive

**Q.** What about the MIC (Escherichia coli [21]) of the same compound?
**A.** 16 µg/mL

**Q.** What about the MIC (Escherichia coli [22]) of the same compound?
**A.** 16 µg/mL

**Q.** Which MIC (Escherichia coli [23]) does the source give for `N=C(N)NCCC[C@H](NC(=O)[C@@H](N)Cc1ccccc1)C(=O)Nc1ccc2ccccc2c1` [PABETAN] (H-Phe-Arg-βNA) here?
**A.** 256 µg/mL

**Q.** What about the MIC (Escherichia coli [24]) of the same compound?
**A.** 16 µg/mL

**Q.** What about the MIC (Escherichia coli [25]) of the same compound?
**A.** 16 µg/mL

**Q.** What about the MIC (Escherichia coli [26]) of the same compound?
**A.** 2 µg/mL

**Q.** And the MIC (Escherichia coli [27])?
**A.** 2 µg/mL

**Q.** What about the MIC (Escherichia coli [28]) of the same compound?
**A.** 256 µg/mL

**Q.** And the MIC (Escherichia coli [29])?
**A.** 2 µg/mL
